Assays:
[1] = system: SNAP-tag in the nucleus of Hela cells; experiment: Live-cell imaging, localisation in Hela cells expressing SNAP-tag in the nucleus; format: cell-based
Procedure: (§1) Mammalian expression vectors with a SNAP-tag-NLS or SNAP-tag-Halo-tag-NLS fusion construct were available in the Johnsson lab. H2B-Halo was constructed from a pEBTet plasmid and the commercially available pCLIPf-H2B plasmid (NEB).
(§2) HeLa or U2OS cells were cultured in high-glucose DMEM media with GlutaMAX-1 (Life Technologies) supplemented with 10% FBS (Life Technologies) in a humidified 5% CO2 incubator at 37° C. Cells were split every 3-4 days or at confluency.
(§3) Cells were seeded on glass bottom 35 mm dishes (Mattek) one day before imaging. Transient transfection of cells was performed using Lipofectamine™ 2000 reagent (Life Technologies) according to the manufacturer's recommendations: DNA (2.5 μg) was mixed with OptiMEM I (100 μL, Life Technologies) and Lipofectamine™ 2000 (6 μL) was mixed with OptiMEM I (100 μL). The solutions were incubated for 5 min at room temperature. They were mixed and incubated for 20 min at room temperature. Prepared DNA-Lipofectamine complex was added to a glass bottom 35 mm dish with cells at 50-70% confluency. After 6 h incubation in a humidified 5% CO2 incubator at 37° C. the medium was changed to a fresh high-glucose DMEM medium with GlutaMAX-1 supplemented with 10% FBS. The cells were incubated for 1-2 days before imaging. […]

DNA = experiment: Live-cell imaging, localisation of PA-SiR-DNA to its target; format: cell-based
Procedure: as §2
(§4) Cells were stained with 1-3 μM PA-SiR (1-2 h, 37° C.), washed with phenol-red free DMEM medium (Life Technologies) or PBS (once for 3 min, 37° C.) and imaged in the same medium.
(§5) Imaging was performed using a Leica DMI6000B microscope equipped with a Hamamatsu-C9100 EM-CCD camera and a HCX PL APO 100.0×1.47 Oil objective and a standard Cy5 filter set was used. Activation of the fluorophores was achieved by irradiation with the DAPI-channel at 100% for 10-20 s. The same settings (exposure time=150 ms, gain=3, EM-gain=800, transmission=12.5%) were used for the images taken before and after UV irradiation in the SiR-channel.
(§6) Confocal imaging was performed on a Leica DMi8 microscope equipped with a Leica TCS SP8 X scanhead, a white light laser, a 355 nm laser (Coherent) and HC PL APO 63×1.47 Oil objective. The 355 nm laser was used to perform the photoactivation.

[2] = UV-Vis analysis / full absorbance spectra of PA-SiR 2a before and after UV irradiation; format: physicochemical; conditions: PBS
Procedure: PBS solutions of different pH were adjusted by addition of HCl or NaOH solution using a pH meter.
Solutions were prepared in PBS ([…] or 20 μM) at the indicated pH. UV irradiation was performed outside of the spectrometer for the indicated period (T). Absorbance spectra were recorded using a SHIMADZU UV spectrophotometer (UV-1800) and 1 cm fluorescence quartz cuvettes (Hellma Analytics). Spectra were recorded every minute.
Solutions of 2a in PBS (10 μM) at the desired pH were prepared in 1 cm fluorescence quartz cuvette (Hellma Analytics). UV irradiation was performed directly inside the spectrophotometer during the running experiment at a fixed distance (F, single flash). Kinetic absorbance measurements were recorded on a Perkin-Elmer Lambda 950 spectrophotometer at 646 nm.

Tubulin = experiment: Live-cell imaging, localisation of PA-SiR-Tubulin to its target; format: cell-based
Procedure: as §2, §4, §5, §6

[3] = system: HaloTag in the nucleus of Hela cells; experiment: Live-cell imaging, localisation in Hela cells expressing HaloTag in the nucleus; format: cell-based
Procedure: as §1, §2, §3

HaloTag-H2B fusion = experiment: Live-cell imaging, U2OS cells expressing HaloTag-H2B fusion; format: cell-based; conditions: 1 μM, 1 h (FIG. 3)
Procedure: FIG. 3 U2OS cells expressing HaloTag-H2B fusion stained with PA-SiR-Halo for 1 h (1 μM) and washed once for 3 min. Images were taken before and after irradiation with the 355 nm laser on a confocal microscope. Scale bar 30 μm.
as §1, §2
Cells were seeded on glass bottom 35 mm dishes (Mattek) one day before imaging. Transient transfection of cells was performed using Lipofectamine™ 2000 reagent (Life Technologies) according to the manufacturer's recommendations: DNA (2.5 μg) was mixed with OptiMEM I (100 μL, Life Technologies) and Lipofectamine™ 2000 (6 μL) was mixed with OptiMEM I (100 μL). The solutions were incubated for 5 min at room temperature. They were mixed and incubated for 20 min at room temperature. Prepared DNA-Lipofectamine complex was added to a glass bottom 35 mm dish with cells at 50-70% confluency. […]

Actin = experiment: Live-cell imaging, localisation of PA-SiR-Actin to its target; format: cell-based
Procedure: as §2, §4, §5, §6

CN(C)c1ccc2c(c1)[Si](C)(C)c1cc(N(C)C)ccc1C2=CCCC(=O)NCc1ccc(COc2nc(N)nc3[nH]cnc23)cc1 [PA-SiR-SNAP, N-(4-(((2-Amino-9H-purin-6-yl)oxy)methyl)benzyl)-4-(3,7-bis(dimethylamino)-5,5-dimethyldibenzo[b,e]silin-10(5H)-ylidene)butanamide]
localisation to SNAP-tag in the nucleus [1]: successfully localised

CN1CCN(c2ccc3nc(-c4ccc5nc(-c6ccc(OCCCCNC(=O)CCC=C7c8ccc(N(C)C)cc8[Si](C)(C)c8cc(N(C)C)ccc87)cc6)[nH]c5c4)[nH]c3c2)CC1 [PA-SiR-DNA, 4-(3,7-Bis(dimethylamino)-5,5-dimethyldibenzo[b,e]silin-10(5H)-ylidene)-N-(4-(4-(6-(4-methylpiperazin-1-yl)-1H,3′H-[2,5′-bibenzo[d]imidazol]-2′-yl)henoxy)butyl)butanamide]
localisation to target (DNA) (DNA): localised to their targets

CN(C)c1ccc2c(c1)[Si](C)(C)c1cc(N(C)C)ccc1C2=CCCC(=O)O [2a, 4-(3,7-Bis(dimethylamino)-5,5-dimethyldibenzo[b,e]silin-10(5H)-ylidene)butanoicacid]
absorbance (before photoactivation) [2]: only absorbance in the UV-range

CC(=O)O[C@@]12CO[C@@H]1C[C@H](O)[C@@]1(C)C(=O)[C@H](O)C3=C(C)[C@@H](OC(=O)C(O)C(NC(=O)CCCCCCCNC(=O)CCC=C4c5ccc(N(C)C)cc5[Si](C)(C)c5cc(N(C)C)ccc54)c4ccccc4)C[C@@](O)([C@@H](OC(=O)c4ccccc4)[C@H]21)C3(C)C (stereo partly drawn) [PA-SiR-Tubulin, (2αR,4S,4αS,6R,9S,11S,12S,12αR,12βS)-12β-Acetoxy-9-((3-(8-(4-(3,7-bis(dimethylamino)-5,5-dimethyldibenzo[b,e]silin-10(5H)-ylidene)butanamido)octanamido)-2-hydroxy-3-phenylpropanoyl)oxy)-4,6,11-trihydroxy-4α,8,13,13-tetramethyl-5-oxo-2α,3,4,4α,5,6,9,10,11,12,12α,12β-dodecahydro-1H-7,11-methanocyclodeca[3,4]benzo[1,2-β]oxet-12-yl benzoate]
localisation to target (tubulin) (Tubulin): localised to their targets

CN(C)c1ccc2c(c1)[Si](C)(C)c1cc(N(C)C)ccc1C2=CCCC(=O)NCCOCCOCCCCCCCl [PA-SiR-Halo, 4-(3,7-Bis(dimethylamino)-5,5-dimethyldibenzo[b,e]silin-10(5H)-ylidene)-N-(2-(2-((6-chlorohexyl)oxy)ethoxy)ethyl)butanamide]
localisation to HaloTag in the nucleus [3]: successfully localised
localisation to H2B (HaloTag-H2B fusion): successfully localised

C/C1=C\CC[C@H](C)OC(=O)C[C@H](c2ccc(O)cc2)NC(=O)[C@@H](Cc2cc3ccccc3[nH]2)N(C)C(=O)[C@H](CCCCNC(=O)CCC=C2c3ccc(N(C)C)cc3[Si](C)(C)c3cc(N(C)C)ccc32)NC(=O)[C@@H](C)C1 [PA-SiR-Actin, N-(4-((4R,7R,10S,13S,19S,E)-7-((1H-Indol-2-yl)methyl)-4-(4-hydroxyphenyl)-8,13,15,19-tetramethyl-2,6,9,12-tetraoxo-1-oxa-5,8,11-triazacyclononadec-15-en-10-yl)butyl)-4-(3,7-bis(dimethylamino)-5,5-dimethyldibenzo[b,e]silin-10(5H)-ylidene)butanamide]
localisation to target (actin) (Actin): localised to their targets

Source: patent US12018157B2, “Tunable photoactivatable silicon rhodamine fluorophores” (SPIROCHROME AG, priority 2017, dated 2024)
